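48-hour exposure; five concentrations; linearly interpolated endpoints. GI50 marks 50% less growth.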 Activity calls are given as the source filed them. Rule as the data show it: active = GI50 up to about 1.1 µM and inactive = higher.
How the values were obtained:
Experiment in all cases: inhibition of tumour cell growth, NCI panel, 48 h
[1] = test system: SN12C
[2] = test system: HL-60
[3] = test system: SK-MEL-5
[4] = test system: A498
[5] = test system: OVCAR-5
[6] = test system: HT-29
[7] = test system: Malme-3M
[8] = test system: SNB-75
[9] = test system: LOX IMVI
[10] = test system: HOP-92
[11] = test system: KM-20L2
[12] = test system: NCI-H522
[13] = test system: SF-268
[14] = test system: COLO 205
[15] = test system: SK-MEL-28
[16] = test system: HCC 2998
[17] = test system: CAKI-1
[18] = test system: 786-0

| SMILES | GI50 [1] | GI50 [2] | GI50 [3] | GI50 [4] | GI50 [5] | GI50 [6] | GI50 [7] | GI50 [8] | GI50 [9] | GI50 [10] | GI50 [11] | GI50 [12] | GI50 [13] | GI50 [14] | GI50 [15] | GI50 [16] | GI50 [17] | GI50 [18] |
| --- | --- | --- | --- | --- | --- | --- | --- | --- | --- | --- | --- | --- | --- | --- | --- | --- | --- | --- |
| COC(=O)C(=O)C(C(=O)C=C(C)C)C(=O)C(=O)Nc1nc2ccc([N+](=O)[O-])cc2s1 (centres undefined) | 37.9 µM (inactive) | 35.4 µM (inactive) | 35.7 µM (inactive) | 30.5 µM (inactive) | > 100 µM (inactive) | > 100 µM (inactive) | > 100 µM (inactive) | 21.4 µM (inactive) | 56.4 µM (inactive) | 27.3 µM (inactive) | > 100 µM (inactive) | 23.7 µM (inactive) | 39 µM (inactive) | > 100 µM (inactive) | 63.2 µM (inactive) | 46.6 µM (inactive) | 29.5 µM (inactive) | > 100 µM (inactive) |
| CC(C)c1cccc(C(C)C)c1/N=C(/N)C#N | > 100 µM (inactive) | 26.7 µM (inactive) | > 93.5 µM (inactive) | > 100 µM (inactive) | > 100 µM (inactive) | > 58.6 µM (inactive) | > 100 µM (inactive) | > 100 µM (inactive) | 25.2 µM (inactive) | > 41.5 µM (inactive) | > 100 µM (inactive) | 38 µM (inactive) | > 100 µM (inactive) | 40.6 µM (inactive) | > 100 µM (inactive) | > 100 µM (inactive) | > 100 µM (inactive) | > 43.6 µM (inactive) |
| OCC(O)C(OC1OC(CO)C(O)C(O)C1O)c1nn(-c2ccccc2)c2nc3cc(Cl)ccc3nc12 (centres undefined) | > 100 µM (inactive) |  |  | > 100 µM (inactive) | > 100 µM (inactive) | > 100 µM (inactive) | > 100 µM (inactive) | > 100 µM (inactive) | > 100 µM (inactive) |  | > 100 µM (inactive) | > 100 µM (inactive) | > 100 µM (inactive) |  | > 100 µM (inactive) | > 100 µM (inactive) |  | > 100 µM (inactive) |
| Nc1c(-c2ccc(Cl)cc2Cl)[n+]([O-])c2ccccc2[n+]1[O-] | > 100 µM (inactive) | > 100 µM (inactive) | > 100 µM (inactive) | > 100 µM (inactive) | > 100 µM (inactive) | > 100 µM (inactive) | > 100 µM (inactive) | 48.2 µM (inactive) | > 100 µM (inactive) |  | > 100 µM (inactive) | 37.4 µM (inactive) | > 100 µM (inactive) | > 100 µM (inactive) | > 100 µM (inactive) | > 100 µM (inactive) | > 100 µM (inactive) | > 100 µM (inactive) |
| FC(F)(F)c1cccc(/C=N/C23CC4CC(CC(C4)C2)C3)c1 | > 100 µM (inactive) | > 100 µM (inactive) | > 100 µM (inactive) | > 100 µM (inactive) | > 100 µM (inactive) | > 100 µM (inactive) | > 100 µM (inactive) | 51.9 µM (inactive) | > 100 µM (inactive) |  | > 100 µM (inactive) |  | > 100 µM (inactive) | > 100 µM (inactive) | > 100 µM (inactive) | > 100 µM (inactive) | > 100 µM (inactive) | > 100 µM (inactive) |
| C[C@@H]1[C@@H]2[C@@H](C=C3C4CCC5Cc6nc7c(nc6C[C@@]5(C)C4C[C@H](O)[C@]32CO)CC2CCC3C4=C[C@H]5O[C@@]6(OC(C)(CO)C[C@@H]6O)[C@H](C)[C@@]5(O)[C@]4(C)[C@@H](O)CC3[C@]2(C)C7)O[C@]12CCC(C)(C)O2 (some centres undefined) | 0.904 µM (active) | 0.00692 µM (active) | 0.0324 µM (active) | 0.00883 µM (active) | 0.488 µM (active) | 0.0625 µM (active) | 0.101 µM (active) | 0.00038 µM (active) |  | 0.00815 µM (active) | 0.0233 µM (active) | 0.579 µM (active) | 0.0208 µM (active) | 0.0809 µM (active) | 0.0305 µM (active) | 0.145 µM (active) | 0.021 µM (active) | 0.00262 µM (active) |
| O=c1oc(=O)c2oc3ccccc3oc1=2 | > 100 µM (inactive) | > 100 µM (inactive) |  | > 100 µM (inactive) | > 100 µM (inactive) | > 100 µM (inactive) | > 100 µM (inactive) | > 100 µM (inactive) | > 100 µM (inactive) | > 100 µM (inactive) | > 100 µM (inactive) | > 100 µM (inactive) | > 100 µM (inactive) | > 100 µM (inactive) | > 100 µM (inactive) | > 100 µM (inactive) | > 100 µM (inactive) | > 100 µM (inactive) |
| O=C1/C(=C(\Nc2ccccc2)c2ccccc2)C=NN1c1ccccc1 | > 100 µM (inactive) | 17.7 µM (inactive) | 26.7 µM (inactive) | > 100 µM (inactive) | > 100 µM (inactive) | 47.9 µM (inactive) | 59 µM (inactive) | > 100 µM (inactive) | > 100 µM (inactive) |  | > 100 µM (inactive) | > 100 µM (inactive) | > 100 µM (inactive) | > 100 µM (inactive) | > 100 µM (inactive) | > 100 µM (inactive) | > 100 µM (inactive) | > 100 µM (inactive) |
| C=CCNC(=O)NCCCC(NC(C)=O)C(=O)NCc1ccccc1 (centres undefined) | > 100 µM (inactive) | > 100 µM (inactive) | > 100 µM (inactive) | > 100 µM (inactive) | > 100 µM (inactive) | > 100 µM (inactive) | > 100 µM (inactive) | > 100 µM (inactive) | > 100 µM (inactive) | > 100 µM (inactive) | > 100 µM (inactive) | > 100 µM (inactive) | > 100 µM (inactive) | > 100 µM (inactive) | > 100 µM (inactive) |  | > 100 µM (inactive) | > 100 µM (inactive) |
| CN1C(=O)N(C)C2(O)c3ccccc3C(=O)C12O (centres undefined) | > 100 µM (inactive) |  | > 100 µM (inactive) | > 100 µM (inactive) | > 100 µM (inactive) | > 100 µM (inactive) | > 100 µM (inactive) | > 100 µM (inactive) | > 100 µM (inactive) |  | > 100 µM (inactive) | > 100 µM (inactive) | > 100 µM (inactive) | > 100 µM (inactive) | > 100 µM (inactive) | > 100 µM (inactive) | > 100 µM (inactive) | > 100 µM (inactive) |
| O=C(O)[C@@H](NS(=O)(=O)c1ccc2ccccc2c1)c1ccccc1 | > 100 µM (inactive) | > 100 µM (inactive) |  | > 100 µM (inactive) | > 100 µM (inactive) | > 100 µM (inactive) | > 100 µM (inactive) | > 100 µM (inactive) | > 100 µM (inactive) | > 100 µM (inactive) | > 100 µM (inactive) | > 100 µM (inactive) | > 100 µM (inactive) | > 100 µM (inactive) | > 100 µM (inactive) | > 100 µM (inactive) | > 100 µM (inactive) | > 100 µM (inactive) |
| CC(C)(CN1CCCCC1)C(=O)CC(SCCS(=O)(=O)O)c1ccc(Br)cc1 (centres undefined) | 1.34 µM (inactive) |  | 1.8 µM (inactive) | 2.1 µM (inactive) | 2.8 µM (inactive) | 1.75 µM (inactive) | 1.39 µM (inactive) | 2.07 µM (inactive) |  | 0.578 µM (active) | 1.58 µM (inactive) | 1.15 µM (inactive) | 2.61 µM (inactive) | 1.45 µM (inactive) | 3.27 µM (inactive) | 2.7 µM (inactive) | 2.4 µM (inactive) | 1.26 µM (inactive) |

— ChEMBL document CHEMBL1201862, “PubChem BioAssay data set” (2004)
